Source: US10710986B2, “PD-1/PD-L1 inhibitors” (Gilead Sciences, Inc., priority 2018, dated 2020)

target: PD-1/PD-L1 (Homo sapiens (Human), UniProt Q9NZQ7); test: PD-1/PD-L1 biochemical protein-protein interaction assay (ALPHA); settings: 0.3 nM His tagged PD-L1, 2.5 nM biotinylated Fc-PD-1, 60 minutes at 25° C., read-out: IC50 PD-L1-PD1
Sequence (Q9NZQ7 19-238): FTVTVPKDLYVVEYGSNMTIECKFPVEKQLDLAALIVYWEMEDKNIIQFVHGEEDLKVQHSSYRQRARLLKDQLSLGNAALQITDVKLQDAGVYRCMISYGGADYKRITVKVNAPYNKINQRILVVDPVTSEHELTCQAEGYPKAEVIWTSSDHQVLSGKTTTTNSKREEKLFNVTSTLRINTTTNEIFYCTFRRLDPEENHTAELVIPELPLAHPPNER

| Structure (SMILES) | IC50 |
| --- | --- |
| COc1nc(-c2cccc(-c3cccc(-c4cnc(CNCC[C@H]5CNC(=O)C5)c(OC)n4)c3Cl)c2Cl)cnc1CNCC[C@H]1CNC(=O)C1 [compound 540] | 0.072 nM |
| COc1nc(-c2cccc(-c3cccc(-c4cnc(CN5CCC[C@@H]6C(=O)NC[C@@H]65)c(OC)n4)c3Cl)c2Cl)cnc1CNC[C@@H]1CCC(=O)N1 [compound 542] | 0.392 nM |
| COc1nc(-c2cccc(-c3cccc(-c4cnc(CN5CC(O)(C6CC6)C5)c(OC)n4)c3Cl)c2Cl)cnc1CN1CC(O)(C2CC2)C1 [compound 548] | 0.665 nM |
| COc1nc(-c2cccc(-c3cccc(-c4cnc(CN5CC(O)(C6CC6)C5)c(OC)n4)c3Cl)c2Cl)cnc1CNC[C@@H]1CCC(=O)N1 [compound 549] | 0.194 nM |
| C#CC1(O)CN(Cc2ncc(-c3cccc(-c4cccc(-c5cnc(CN6CC(O)(C#C)C6)c(OC)n5)c4Cl)c3Cl)nc2OC)C1 [compound 550] | 0.593 nM |
| COc1nc(-c2cccc(-c3cccc(-c4cnc(CN5CC[C@@H](C(=O)O)C5)c(OC)n4)c3Cl)c2Cl)cnc1CNC[C@@H]1CCC(=O)N1 [compound 552] | 0.144 nM |
| CNC(=O)NC1CN(Cc2ncc(-c3cccc(-c4cccc(-c5cnc(CN6CC(NC(=O)NC)C6)c(OC)n5)c4Cl)c3Cl)nc2OC)C1 [compound 554] | 0.099 nM |
| CNC(=O)C1CN(Cc2ncc(-c3cccc(-c4cccc(-c5cnc(CN6CC(C(=O)NC)C6)c(OC)n5)c4Cl)c3Cl)nc2OC)C1 [compound 555] | 0.345 nM |
| COc1nc(-c2cccc(-c3cccc(-c4cnc(CN5CC(NS(C)(=O)=O)C5)c(OC)n4)c3Cl)c2Cl)cnc1CN1CC(NS(C)(=O)=O)C1 [compound 556] | 0.176 nM |
| CNC(=O)NC1CN(Cc2ncc(-c3cccc(-c4cccc(-c5cnc(CNC[C@@H]6CCC(=O)N6)c(OC)n5)c4Cl)c3Cl)nc2OC)C1 [compound 557] | 0.09 nM |
| CNC(=O)C1CN(Cc2ncc(-c3cccc(-c4cccc(-c5cnc(CNC[C@@H]6CCC(=O)N6)c(OC)n5)c4Cl)c3Cl)nc2OC)C1 [compound 558] | 0.064 nM |
| COc1nc(-c2cccc(-c3cccc(-c4cnc(CN5CC(NS(C)(=O)=O)C5)c(OC)n4)c3Cl)c2Cl)cnc1CNC[C@@H]1CCC(=O)N1 [compound 559] | 0.12 nM |
| COc1nc(-c2cccc(-c3cccc(-c4cnc(CNCCCN5CCCS5(=O)=O)c(OC)n4)c3Cl)c2Cl)cnc1CNCCCN1CCCS1(=O)=O [compound 570] | 0.414 nM |
| COc1nc(-c2cccc(-c3cccc(-c4cnc(CN5CC(NS(N)(=O)=O)C5)c(OC)n4)c3Cl)c2Cl)cnc1CN1CC(NS(N)(=O)=O)C1 [compound 571] | 0.064 nM |
| CNS(=O)(=O)CCNCc1ncc(-c2cccc(-c3cccc(-c4cnc(CNC[C@@H]5CCC(=O)N5)c(OC)n4)c3Cl)c2Cl)nc1OC [compound 572] | 0.064 nM |
| COc1nc(-c2cccc(-c3cccc(-c4cnc(CNC[C@@H]5CCC(=O)N5)c(OC)n4)c3Cl)c2Cl)cnc1CNCCN1CCCS1(=O)=O [compound 573] | 0.089 nM |

| Structure (SMILES) | IC50 |
| --- | --- |
| COc1nc(-c2cccc(-c3cccc(-c4cnc(CN5CC(S(C)(=O)=O)C5)c(OC)n4)c3Cl)c2Cl)cnc1CNC[C@@H]1CCC(=O)N1 [compound 574] | 0.133 nM |
| COc1nc(-c2cccc(-c3cccc(-c4cnc(CNCCNS(C)(=O)=O)c(OC)n4)c3Cl)c2Cl)cnc1CNCCNS(C)(=O)=O [compound 575] | 0.064 nM |
| COc1nc(-c2cccc(-c3cccc(-c4cnc(CNC[C@@H]5CCC(=O)N5)c(OC)n4)c3Cl)c2Cl)cnc1CNCCCS(N)(=O)=O [compound 577] | 0.064 nM |
| COc1nc(-c2cccc(-c3cccc(-c4cnc(CN(C)C[C@@H]5CCC(=O)N5)c(OC)n4)c3Cl)c2Cl)cnc1CNC[C@@H]1CCC(=O)N1 [compound 580] | 0.359 nM |
| COc1nc(-c2cccc(-c3cccc(-c4cnc(C5=NCCN5)c(OC)n4)c3Cl)c2Cl)ccc1CN [compound 582] | 0.19 nM |
| COc1nc(-c2cccc(-c3cccc(-c4cnc(CN)c(OC)n4)c3Cl)c2Cl)ccc1C1=NCCN1 [compound 583] | 0.064 nM |
| COc1nc(-c2cccc(-c3cccc(-c4cnc(C5=NCCN5)c(OC)n4)c3Cl)c2Cl)cnc1CN [compound 584] | 0.118 nM |
| COc1nc(-c2cccc(-c3cccc(-c4cnc(CN5CC[C@H](C(=O)O)C5)c(OC)n4)c3Cl)c2Cl)cnc1CN [compound 585] | 0.442 nM |
| COc1nc(-c2cccc(-c3cccc(-c4cnc(CN5CC[C@H](O)C5)c(OC)n4)c3Cl)c2Cl)cnc1CN [compound 586] | 0.29 nM |
| COc1nc(-c2cccc(-c3cccc(-c4cnc(CN5CC[C@@H](O)C5)c(OC)n4)c3Cl)c2Cl)cnc1CN [compound 587] | 0.515 nM |
| COc1nc(-c2cccc(-c3cccc(-c4cnc(CN[C@H](C5CC5)[C@@H]5CCC(=O)N5)c(OC)n4)c3Cl)c2Cl)cnc1CN[C@H](C1CC1)[C@@H]1CCC(=O)N1 [compound 590] | 0.131 nM |
| COc1nc(-c2cccc(-c3cccc(-c4cnc(CN5CC6(CNC(=O)C6)C5)c(OC)n4)c3Cl)c2Cl)cnc1CN [compound 591] | 0.138 nM |
| COc1nc(-c2cccc(-c3cccc(-c4cnc(CN5CC(O)C5)c(OC)n4)c3Cl)c2Cl)cnc1CN [compound 594] | 0.12 nM |
| COc1nc(-c2cccc(-c3cccc(-c4cnc(CN5CC6(CCC(=O)N6)C5)c(OC)n4)c3Cl)c2Cl)cnc1CN [compound 595] | 0.064 nM |
| COc1nc(-c2cccc(-c3cccc(-c4cnc(CN5CC6(C5)CN(C(C)=O)C6)c(OC)n4)c3Cl)c2Cl)cnc1CN [compound 597] | 0.129 nM |

Further lines, results first:

| IC50 | Structure (SMILES) |
| --- | --- |
| 0.094 nM | COc1nc(-c2cccc(-c3cccc(-c4cnc(CNC[C@@H]5CCC(=O)N5)c(OC)n4)c3Cl)c2Cl)cnc1CNCC[C@H]1CNC(=O)C1 [compound 541] |
| 0.2 nM | COc1nc(-c2cccc(-c3cccc(-c4cnc(CNC[C@@H]5CCC(=O)N5)c(OC)n4)c3Cl)c2Cl)cnc1CNCC1CCN(C)C1=O (stereo partly drawn) [compound 543] |
| 0.238 nM | COc1nc(-c2cccc(-c3cccc(-c4cnc(CNCC56CC(O)(C5)C6)c(OC)n4)c3Cl)c2Cl)cnc1CNCC12CC(O)(C1)C2 [compound 544] |
| 0.214 nM | COc1nc(-c2cccc(-c3cccc(-c4cnc(CNCC56CC(O)(C5)C6)c(OC)n4)c3Cl)c2Cl)cnc1CNC[C@@H]1CCC(=O)N1 [compound 545] |
| 0.089 nM | COc1nc(-c2cccc(-c3cccc(-c4cnc(CNCC5CN(S(C)(=O)=O)C5)c(OC)n4)c3Cl)c2Cl)cnc1CNCC1CN(S(C)(=O)=O)C1 [compound 546] |
| 0.064 nM | COc1nc(-c2cccc(-c3cccc(-c4cnc(CNC[C@@H]5CCC(=O)N5)c(OC)n4)c3Cl)c2Cl)cnc1CNCC1CN(S(C)(=O)=O)C1 [compound 547] |
| 0.464 nM | C#CC1(O)CN(Cc2ncc(-c3cccc(-c4cccc(-c5cnc(CNC[C@@H]6CCC(=O)N6)c(OC)n5)c4Cl)c3Cl)nc2OC)C1 [compound 551] |
| 0.118 nM | COc1nc(-c2cccc(-c3cccc(-c4cnc(CN[C@@](C)(CO)C(=O)O)c(OC)n4)c3Cl)c2Cl)cnc1CNC[C@@H]1CCC(=O)N1 [compound 553] |
| 0.144 nM | COc1nc(-c2cccc(-c3cccc(-c4cnc(CNC5CS(=O)(=O)C5)c(OC)n4)c3Cl)c2Cl)cnc1CNC[C@@H]1CCC(=O)N1 [compound 560] |
| 0.164 nM | COc1nc(-c2cccc(-c3cccc(-c4cnc(CN[C@H]5C[C@](C)(O)C5)c(OC)n4)c3Cl)c2Cl)cnc1CN[C@H]1C[C@](C)(O)C1 [compound 561] |
| 0.151 nM | COc1nc(-c2cccc(-c3cccc(-c4cnc(CNC[C@H]5C[C@@](C)(O)C5)c(OC)n4)c3Cl)c2Cl)cnc1CNC[C@H]1C[C@@](C)(O)C1 [compound 562] |
| 0.431 nM | COc1nc(-c2cccc(-c3cccc(-c4cnc(CNC[C@H]5C[C@](C)(O)C5)c(OC)n4)c3Cl)c2Cl)cnc1CNC[C@H]1C[C@](C)(O)C1 [compound 563] |
| 0.2 nM | COc1nc(-c2cccc(-c3cccc(-c4cnc(CN[C@H]5C[C@](C)(O)C5)c(OC)n4)c3Cl)c2Cl)cnc1CNC[C@@H]1CCC(=O)N1 [compound 564] |
| 0.43 nM | COc1nc(-c2cccc(-c3cccc(-c4cnc(CNC[C@H]5C[C@H](OC)C5)c(OC)n4)c3Cl)c2Cl)cnc1CNC[C@@H]1CCC(=O)N1 [compound 565] |
| 0.13 nM | COc1nc(-c2cccc(-c3cccc(-c4cnc(CNC[C@H]5C[C@@](C)(O)C5)c(OC)n4)c3Cl)c2Cl)cnc1CNC[C@@H]1CCC(=O)N1 [compound 566] |
| 0.064 nM | COc1nc(-c2cccc(-c3cccc(-c4cnc(CNC[C@H]5C[C@](C)(O)C5)c(OC)n4)c3Cl)c2Cl)cnc1CNC[C@@H]1CCC(=O)N1 [compound 567] |
| 0.293 nM | COc1nc(-c2cccc(-c3cccc(-c4cnc(CNC[C@H]5CCS(=O)(=O)N5)c(OC)n4)c3Cl)c2Cl)cnc1CNC[C@H]1CCS(=O)(=O)N1 [compound 568] |
| 0.59 nM | COc1nc(-c2cccc(-c3cccc(-c4cnc(CNC[C@@H]5CCS(=O)(=O)N5)c(OC)n4)c3Cl)c2Cl)cnc1CNC[C@@H]1CCS(=O)(=O)N1 [compound 569] |
| 0.641 nM | COc1nc(-c2cccc(-c3cccc(-c4cnc(CNCC5CCS(=O)(=O)N5)c(OC)n4)c3Cl)c2Cl)cnc1CNCC1CCS(=O)(=O)N1 (stereo not drawn) [compound 576] |
| 0.182 nM | CCNC(=O)CNCc1ncc(-c2cccc(-c3cccc(-c4cnc(CNC[C@@H]5CCC(=O)N5)c(OC)n4)c3Cl)c2Cl)nc1OC [compound 578] |
| 0.782 nM | COc1nc(-c2cccc(-c3cccc(-c4cnc(CNC[C@H]5CCOC5)c(OC)n4)c3Cl)c2Cl)cnc1CNC[C@H]1CCOC1 [compound 579] |
| 0.201 nM | COc1nc(-c2cccc(-c3cccc(-c4cnc(CNC[C@@H]5CCC(=O)N5)c(OC)n4)c3Cl)c2Cl)cnc1CNCC(=O)NC(C)C [compound 581] |
| 0.17 nM | COc1nc(-c2cccc(-c3cccc(-c4cnc(CNCC5(O)COC5)c(OC)n4)c3Cl)c2Cl)cnc1CNCC1(O)COC1 [compound 588] |
| 0.291 nM | COc1nc(-c2cccc(-c3cccc(-c4cnc(CNCC5(O)COC5)c(OC)n4)c3Cl)c2Cl)cnc1CNC[C@@H]1CCC(=O)N1 [compound 589] |
| 0.151 nM | COc1nc(-c2cccc(-c3cccc(-c4cnc(CNC5CC(C)(O)C5)c(OC)n4)c3Cl)c2Cl)cnc1CN (stereo not drawn) [compound 592] |
| 0.181 nM | COc1nc(-c2cccc(-c3cccc(-c4cnc(CN5CC(C)(O)C5)c(OC)n4)c3Cl)c2Cl)cnc1CN [compound 596] |
